“Also recorded” adds a separate entry of the source.
Tests used:
[1] = molecular target: Neurokinin NK1 (Homo sapiens, UniProt P25103); assay type: cell-based
[2] = tested on: Sodium Na+ channel (site 2); assay type: binding; conditions: [3H] Batrachotoxinin, Rat cerebral cortex
[3] = molecular target: T1, Adenosine A2A (Homo sapiens, UniProt P29274); experiment: radioligand binding (Table S2); conditions: [3H] CGS 21680, Human recombinant HEK-293 cells
T1 construct: host or cells: HEK-293 cells

[4] = molecular target: T2, myc-tagged human B2 receptor (Homo sapiens, UniProt P30411); experiment: antibody internalization assay, HEK 293a cells; assay type: cell-based; conditions: BK 100 nM; antagonist 1 nM to 1 μM, 15 min before BK
T2 construct: expressed in transfected cells
Method: B2 receptor-mediated transport of immune complexes constructed at the cell surface was previously reported ([Bawolak et al., 2011]). Intact HEK 293a cells stably expressing the N-terminally myc-tagged B2 receptor construction (human sequence, [Charest-Morin et al., 2015]) were treated with the monoclonal anti-myc antibody (clone 4A6) conjugated with AlexaFluor-488 (Millipore, dilution 1:500) added to the culture medium. Cells were further incubated at 37°C. Without rinsing, a selected antagonist or their DMSO vehicle was added 5 min later, and BK (100 nM) or its saline vehicle 15 min later. After an additional 30 min incubation period at 37°C, cells were rinsed 3 times with Hank's balanced salt solution (Multicell Wisent, St. Bruno, Canada) and photographed in transmission and epifluorescence using an Olympus BX51 microscope coupled to a CoolSnap HQ digital camera (filters for AlexaFluor 488: excitation 460–500 nm, emission 510–560 nm).

[5] = in vitro; conditions: male, Wistar, rat, microsomes, pH 7.4
[6] = molecular target: T3, human myc-B2 receptor (Homo sapiens, UniProt P30411); experiment: c-Fos immunoblot, HEK 293a cells stably expressing myc-B2 receptor; assay type: cell-based; conditions: BK 10 nM
T3 construct: expressed in transfected cells
T3 sequence (P30411 1-391): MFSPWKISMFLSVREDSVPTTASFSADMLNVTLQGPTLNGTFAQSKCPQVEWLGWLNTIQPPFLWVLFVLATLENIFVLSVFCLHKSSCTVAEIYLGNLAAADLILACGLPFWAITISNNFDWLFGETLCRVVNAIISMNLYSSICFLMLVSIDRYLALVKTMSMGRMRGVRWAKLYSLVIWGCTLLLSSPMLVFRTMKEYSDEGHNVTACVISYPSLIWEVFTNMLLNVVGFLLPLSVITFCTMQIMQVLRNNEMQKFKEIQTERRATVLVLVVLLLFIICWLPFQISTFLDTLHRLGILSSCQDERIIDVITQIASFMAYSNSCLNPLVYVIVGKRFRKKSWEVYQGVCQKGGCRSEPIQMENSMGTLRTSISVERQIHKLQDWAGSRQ
From the text: Supplementary Methods: Immunoblots for c-Fos signaling
The construction of myc-tagged B2 receptor expression vector containing the human receptor sequence has been recently reported, as well as the derivation of HEK293a cell lines that stably express the construction (Charest-Morin et al., 2015). Immunoblotting experiments, conducted as described (Koumbadinga et al., 2010), were used to study the effect of selected antagonists on BK-induced signaling. Briefly, HEK 293a cells stably expressing the human myc-B2 receptor were stimulated with BK agonists for 60 min at 37°C, with or without a pretreatment with the antagonist (applied 15 min before BK). Total cell extracts were immunoblotted to detect c-Fos expression using the K-25 rabbit polyclonal antibodies (Santa Cruz Biotechnology, Dallas, TX; dilution 1:50,000). In these experiments, β-actin was used as a loading control and was detected using the monoclonal anti-β-actin antibody, clone AC-15 (Sigma-Aldrich; dilution 1:50,000).

[7] = molecular target: T4, kinin B1 receptor (Homo sapiens, UniProt P46663); experiment: umbilical vein, Sar-[D-Phe^8]des-Arg^9-BK-induced contraction; conditions: 1 μM
T4 construct: during the 3-hour incubation period to upregulate the expression of B1; from tissue; host or cells: human umbilical vein rings pre-incubated with interleukin-1β and tumor necrosis factor-α

[8] = molecular target: Adenosine A1 (Homo sapiens, UniProt P30542); experiment: radioligand binding (Table S2); conditions: [3H] DPCPX, Human recombinant CHO cells
[9] = molecular target: Angiotensine AT2 (Homo sapiens, UniProt P50052); experiment: radioligand binding (Table S2); conditions: read-out: % Inhibition @ 10 µM
[10] = molecular target: T5, Monoamino-oxidase MAO-A (Rattus norvegicus, UniProt P21396); experiment: radioligand binding (Table S2); conditions: [3H] Ro 41-1049, Rat cerebral cortex
T5 construct: Rat cerebral cortex; from tissue; host or cells: rat cerebral cortex

[11] = molecular target: T6, prostanoid TP receptor (Homo sapiens, UniProt P21731); experiment: umbilical vein, U-46619-induced contraction; conditions: Compound 2 10 μM; Compound 3 1 μM
T6 construct: endogenous human prostanoid TP receptors in the umbilical vein model; from tissue; host or cells: human umbilical vein rings
From the text: The local ethics committee (CHU de Québec-Université Laval) had approved the project (File no. 2017-3720). Umbilical cords were obtained following elective caesarean sections; all problematic deliveries are excluded. Informed consent was obtained from the mothers. The cords were transported from the maternity ward to the laboratory in sterile Hank's balanced salt solution containing penicillin and streptomycin. Segments of umbilical veins were dissected carefully from the cords and a metal rod was inserted in the lumen. Excess connective tissue was excised and rings (2–3 mm wide) were cut. Rings of umbilical veins were suspended in 5-mL organ chambers containing oxygenated (95% O2, 5% CO2) and warmed (37°C) Krebs' solution between a metal hook and a thread loop. This solution had the following composition: NaCl 117.5 mM, KCl 4.7 mM, KH2PO4 1.2 mM, MgSO4 1.18 mM, CaCI2 2.5 mM, NaHCO3 25.0 mM, and D-glucose 5.5 mM. A baseline of one gram-weight was applied to these preparations. Changes of tension were recorded by using isometric transducers (model 52-9545, Harvard Bioscience, South Natick MA). Eight tissue baths are operated in parallel.
For this purpose, contractile responses to serotonin, acting on the 5-HT2A receptor, and U-46619, acting at the prostanoid TP receptor, were measured ([Rogines-Velo et al., 2002]; [Daray et al., 2003]).

[12] = tested on: Potassium channel KATP; experiment: radioligand binding (Table S2); conditions: [3H] Glibenclamide, Rat cerebral cortex
[13] = molecular target: T7, Prostacyclin IP (PGI2) (Homo sapiens, UniProt P43119); experiment: radioligand binding (Table S2); conditions: [3H] Iloprost, Human recombinant HEK-293 cells
T7 construct: host or cells: HEK-293 cells

[14] = molecular target: T8, Endothelin ETA (Homo sapiens, UniProt P25101); experiment: radioligand binding (Table S2); conditions: [125I] Endothelin-1, Human recombinant CHO cells
T8 construct: host or cells: CHO cells
T8 sequence (P25101 21-427): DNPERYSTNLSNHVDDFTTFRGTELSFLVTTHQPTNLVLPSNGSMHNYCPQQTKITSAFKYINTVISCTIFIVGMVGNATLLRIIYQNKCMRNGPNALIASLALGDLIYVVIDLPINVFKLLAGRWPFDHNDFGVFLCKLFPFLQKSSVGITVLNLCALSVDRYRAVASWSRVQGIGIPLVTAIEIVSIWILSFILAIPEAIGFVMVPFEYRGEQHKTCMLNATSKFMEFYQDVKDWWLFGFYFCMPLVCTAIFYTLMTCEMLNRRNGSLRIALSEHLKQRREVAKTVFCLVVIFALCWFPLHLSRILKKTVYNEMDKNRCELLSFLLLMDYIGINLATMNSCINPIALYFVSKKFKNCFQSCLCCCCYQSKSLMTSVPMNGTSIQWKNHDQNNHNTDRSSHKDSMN

Neurokinin NK1, sequence (P25103 whole entry): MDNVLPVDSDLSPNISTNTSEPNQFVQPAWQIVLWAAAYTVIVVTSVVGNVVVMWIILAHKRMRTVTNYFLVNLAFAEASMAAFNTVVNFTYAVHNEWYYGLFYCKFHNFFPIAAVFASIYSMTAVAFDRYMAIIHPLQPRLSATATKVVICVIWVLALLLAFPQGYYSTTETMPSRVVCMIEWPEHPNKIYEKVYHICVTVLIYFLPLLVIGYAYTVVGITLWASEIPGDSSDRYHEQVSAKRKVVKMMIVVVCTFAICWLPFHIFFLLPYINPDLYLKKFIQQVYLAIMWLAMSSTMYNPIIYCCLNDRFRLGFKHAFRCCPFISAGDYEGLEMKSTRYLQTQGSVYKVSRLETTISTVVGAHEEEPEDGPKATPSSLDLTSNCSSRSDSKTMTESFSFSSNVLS
T6 sequence (P21731 whole entry): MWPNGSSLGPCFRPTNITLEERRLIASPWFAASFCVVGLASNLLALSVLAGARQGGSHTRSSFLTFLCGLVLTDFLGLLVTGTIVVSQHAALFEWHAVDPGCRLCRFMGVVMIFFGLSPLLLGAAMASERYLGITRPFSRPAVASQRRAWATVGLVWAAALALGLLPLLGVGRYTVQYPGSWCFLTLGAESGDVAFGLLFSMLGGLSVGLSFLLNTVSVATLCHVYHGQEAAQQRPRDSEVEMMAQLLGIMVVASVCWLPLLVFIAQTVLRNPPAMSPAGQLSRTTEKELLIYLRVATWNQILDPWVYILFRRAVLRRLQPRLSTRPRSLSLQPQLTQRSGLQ
T7 sequence (P43119 whole entry): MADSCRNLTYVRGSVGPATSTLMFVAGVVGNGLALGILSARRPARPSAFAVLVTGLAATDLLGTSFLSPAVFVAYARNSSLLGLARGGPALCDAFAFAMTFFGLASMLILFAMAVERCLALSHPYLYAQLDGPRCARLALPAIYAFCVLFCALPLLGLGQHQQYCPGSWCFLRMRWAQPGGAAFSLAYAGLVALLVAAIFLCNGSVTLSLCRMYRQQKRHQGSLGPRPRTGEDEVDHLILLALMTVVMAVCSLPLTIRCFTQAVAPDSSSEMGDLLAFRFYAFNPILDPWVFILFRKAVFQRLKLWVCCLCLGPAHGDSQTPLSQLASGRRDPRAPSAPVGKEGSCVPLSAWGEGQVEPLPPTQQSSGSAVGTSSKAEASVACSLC
T5 sequence (P21396 whole entry): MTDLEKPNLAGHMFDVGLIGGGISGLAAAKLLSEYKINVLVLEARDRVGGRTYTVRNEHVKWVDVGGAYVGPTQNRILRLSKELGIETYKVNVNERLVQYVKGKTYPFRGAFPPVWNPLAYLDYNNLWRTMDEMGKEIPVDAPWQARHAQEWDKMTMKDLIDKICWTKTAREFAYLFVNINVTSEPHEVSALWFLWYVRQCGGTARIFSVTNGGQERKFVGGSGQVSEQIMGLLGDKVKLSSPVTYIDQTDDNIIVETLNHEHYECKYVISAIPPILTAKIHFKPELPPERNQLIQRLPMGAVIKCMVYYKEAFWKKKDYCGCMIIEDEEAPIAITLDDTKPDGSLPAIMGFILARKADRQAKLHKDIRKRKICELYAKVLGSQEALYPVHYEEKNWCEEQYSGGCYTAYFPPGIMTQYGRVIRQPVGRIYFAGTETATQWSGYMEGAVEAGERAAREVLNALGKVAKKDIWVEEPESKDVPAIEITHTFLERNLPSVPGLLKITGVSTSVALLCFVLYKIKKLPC
T1 sequence (P29274 whole entry): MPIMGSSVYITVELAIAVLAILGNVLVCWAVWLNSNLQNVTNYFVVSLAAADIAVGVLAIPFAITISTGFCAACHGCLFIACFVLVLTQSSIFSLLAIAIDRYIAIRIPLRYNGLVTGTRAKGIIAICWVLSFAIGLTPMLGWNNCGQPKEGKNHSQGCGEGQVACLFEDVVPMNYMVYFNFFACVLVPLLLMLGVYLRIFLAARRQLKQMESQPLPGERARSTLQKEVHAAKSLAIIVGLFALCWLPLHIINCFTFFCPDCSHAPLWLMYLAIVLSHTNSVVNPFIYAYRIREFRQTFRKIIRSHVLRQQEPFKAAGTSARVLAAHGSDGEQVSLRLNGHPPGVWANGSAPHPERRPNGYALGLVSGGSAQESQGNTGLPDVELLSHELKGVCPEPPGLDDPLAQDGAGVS
Angiotensine AT2, sequence (P50052 whole entry): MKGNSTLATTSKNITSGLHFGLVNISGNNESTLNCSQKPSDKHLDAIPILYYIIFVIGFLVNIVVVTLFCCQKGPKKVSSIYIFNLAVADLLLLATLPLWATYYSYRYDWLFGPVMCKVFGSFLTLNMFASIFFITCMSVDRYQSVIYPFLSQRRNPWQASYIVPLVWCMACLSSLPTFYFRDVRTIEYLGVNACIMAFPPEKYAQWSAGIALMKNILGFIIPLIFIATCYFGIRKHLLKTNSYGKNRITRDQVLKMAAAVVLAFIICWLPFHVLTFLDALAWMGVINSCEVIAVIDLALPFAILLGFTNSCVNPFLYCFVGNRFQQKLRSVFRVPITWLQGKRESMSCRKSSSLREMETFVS
T4 sequence (P46663 whole entry): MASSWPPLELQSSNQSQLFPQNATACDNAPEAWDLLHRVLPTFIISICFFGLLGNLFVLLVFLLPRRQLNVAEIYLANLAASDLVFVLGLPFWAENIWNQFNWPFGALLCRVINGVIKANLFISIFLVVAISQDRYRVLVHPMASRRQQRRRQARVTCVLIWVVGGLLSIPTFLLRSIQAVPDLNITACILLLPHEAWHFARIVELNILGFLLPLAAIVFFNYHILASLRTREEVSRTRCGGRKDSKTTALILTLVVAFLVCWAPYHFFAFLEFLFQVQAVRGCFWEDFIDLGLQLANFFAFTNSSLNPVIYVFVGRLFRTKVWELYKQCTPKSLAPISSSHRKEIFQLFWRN
Adenosine A1, sequence (P30542 whole entry): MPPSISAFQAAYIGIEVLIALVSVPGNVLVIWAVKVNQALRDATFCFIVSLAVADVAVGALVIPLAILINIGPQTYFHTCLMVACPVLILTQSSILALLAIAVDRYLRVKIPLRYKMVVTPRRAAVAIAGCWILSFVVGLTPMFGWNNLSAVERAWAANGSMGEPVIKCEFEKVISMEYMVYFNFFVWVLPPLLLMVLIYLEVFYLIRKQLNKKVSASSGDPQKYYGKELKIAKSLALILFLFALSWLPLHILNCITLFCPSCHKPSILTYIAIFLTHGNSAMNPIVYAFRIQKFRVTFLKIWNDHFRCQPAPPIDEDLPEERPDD

Cc1cc(-c2ncnn2C)c2cccc(OCc3c(Cl)cc(F)cc3[C@H](C)NC(=O)COC(F)F)c2n1 [Compound 3, (S)-N-(1-(3-chloro-5-fluoro-2-((2-methyl-4-(1-methyl-1H-1,2,4-triazol-5-yl)quinolin-8-yloxy)methyl)phenyl)ethyl)-2-(difluoromethoxy)acetamide]
% of reference agonist response @ 10 µM (agonist effect) ([1]; 10 µM, reference [Sar9,Met(O2)11]-SP (30 nM)): -5.2%
IC50 ([1]; [Sar9,Met(O2)11]-SP (1 nM), read-out: IC50 (µM), functional antagonism): 17 µM
Kb ([1]; [Sar9,Met(O2)11]-SP (1 nM), read-out: Kb (µM), functional antagonism): 2.4 µM
% Inhibition @ 10 µM [2]: -3.4%
inhibition at 10 µM [3]: 9.8%
concentration with clear efficacy in inhibiting BK-induced endocytosis [4]: ≥ 100 nM
microsomal CLint at 1 µM [5]: 27.9 µL/min/mg
antagonist concentration that significantly reduced the c-Fos response to BK ([6]; 60 min): significant effect at equimolar concentration
effect on BK-induced c-Fos accumulation ([6]; co-treatment between 10 nM and 1 μM): inhibited this response in a concentration-dependent manner
effect on contraction by B1 receptor agonist Sar-[D-Phe^8]des-Arg^9-BK [7]: failed to antagonize
inhibition at 10 µM [8]: 12.4%
inhibition at 10 µM [9]: 3.5%
inhibition at 10 µM [10]: -1.3%
effect on U-46619-induced contraction [11]: Lack of antagonist effect; also recorded: no functional antagonism was observed
% Inhibition @ 10 µM [12]: 2.3%
inhibition at 10 µM [13]: -5%
inhibition at 10 µM [14]: -2.1%

— paper PMC7316994, “In Vitro Pharmacological Profile of a New Small Molecule Bradykinin B2 Receptor Antagonist” (Frontiers in Pharmacology, 2020)
